Experimental data reported in patent US20240228476A1, “INHIBITORS OF PROTEIN TYROSINE PHOSPHATASE, COMPOSITIONS, AND METHODS OF USE” (BRISTOL-MYERS SQUIBB COMPANY, priority 2022, published 2024).

Columns and labels:
phospho-STAT1 (Tyr701) = test: Phospho-STAT1 (Tyr701) HTRF assay in B16-F10 cells; assay type: cell-based; conditions: mouse IFN-gamma 100 ng/ml, 1 hour, read-out: pSTAT1 HTRF B16 EC50
Procedure: B16-F10 cells (ATCC, Manassas, VA, #CRL-6475) were cultured in DMEM growth medium (ThermoFisher Scientific, Waltham, MA, #11995-040) supplemented with 10% heat inactivated FBS (ThermoFisher Scientific, #16140-071) and 1% pen/strep (ThermoFisher Scientific, #15140-122). The cells were seeded into a white opaque 384-well tissue culture treated microplate (PerkinElmer, Waltham, MA, #6007688) at a density of 10,000 cells/well in 20 uL total volume and incubated overnight at 37 C and 5% CO2. 30 nL of compounds dissolved in DMSO were then transferred from a source plate into target wells with the Echo650 acoustic liquid handler (Beckman Coulter, Indianapolis, IN). Negative control wells received 30 nL of DMSO only (0.15% final concentration). Plates were returned to the incubator for 1 hour and then cells treated with either 5 uL of growth medium or 5 uL of growth medium containing 500 ng/ml of recombinant mouse IFN-gamma protein (R&D Systems, Minneapolis, MN, #485-MI/CF, 100 ng/ml final concentration) using the Assist automated pipetting platform (INTEGRA Biosciences, Hudson, NH). Plates were incubated at 37 C for 1 hour and assayed for phosphorylated STAT1 protein levels with the phospho-STAT1 (Tyr701) HTRF kit (Cisbio, Bedford, MA, #63ADK026PEH) according to manufacturer's instructions. HTRF signal intensity was collected with the En Vision 2105 plate reader (PerkinElmer) 24 hours later and analyzed with the Dotmatics software platform to calculate compound IC50 values.

B16-F10 cells = test: Cell proliferation assay (CellTiter-Glo) in B16-F10 cells with IFN-gamma; assay type: cell-based; conditions: 120 h, mouse IFN-gamma 10 ng/mL, read-out: PTPN2 Prolif 5d B16F10 EC50
Procedure: B16-F10 cells (ATCC, Manassas, VA, #CRL-6475) were cultured in DMEM growth medium (ThermoFisher Scientific, Waltham, MA, #11995-040) supplemented with 10% heat inactivated FBS (ThermoFisher Scientific, #16140-071) and 1% pen/strep (ThermoFisher Scientific, #15140-122). The cells were seeded into two white opaque 384-well tissue culture treated microplates (PerkinElmer, Waltham, MA, #6007688) at a density of 100 cells/well in 20 uL total volume and incubated overnight at 37 C and 5% CO2. 30 nL of compounds dissolved in DMSO were then transferred from a source plate into target wells with the Echo650 acoustic liquid handler (Beckman Coulter, Indianapolis, IN). Negative control wells received 30 nL of DMSO only (0.15% final concentration). Plates were returned to the incubator for 1 hour and then cells treated with either 5 uL of growth medium or 5 uL of growth medium containing 50 ng/ml of recombinant mouse IFN-gamma protein (R&D Systems, Minneapolis, MN, #485-MI/CF, 10 ng/mL final concentration) using the Assist automated pipetting platform (INTEGRA Biosciences, Hudson, NH). Plates were incubated at 37 C for 4 days and cell proliferation assayed with the CellTiter-Glo reagent (Promega, Madison, WI, #G7573, 25 uL per well). […] Off-target compound mediated cytotoxicity was identified by checking for growth inhibition in the absence of IFNg.

PTPN2 [1] = molecular target: T1, PTPN2 (Homo sapiens, UniProt P17706); test: Phosphatase activity assay using DiFMUP as substrate; assay type: biochemical; parameters: purchased MilliporeSigma SRP5075; conditions: 10 mM DTT, PTPN2 0.15 nM, room temperature, read-out: PTPN2 BCHEM DIFMUP IC50
T1 sequence (P17706 1-415): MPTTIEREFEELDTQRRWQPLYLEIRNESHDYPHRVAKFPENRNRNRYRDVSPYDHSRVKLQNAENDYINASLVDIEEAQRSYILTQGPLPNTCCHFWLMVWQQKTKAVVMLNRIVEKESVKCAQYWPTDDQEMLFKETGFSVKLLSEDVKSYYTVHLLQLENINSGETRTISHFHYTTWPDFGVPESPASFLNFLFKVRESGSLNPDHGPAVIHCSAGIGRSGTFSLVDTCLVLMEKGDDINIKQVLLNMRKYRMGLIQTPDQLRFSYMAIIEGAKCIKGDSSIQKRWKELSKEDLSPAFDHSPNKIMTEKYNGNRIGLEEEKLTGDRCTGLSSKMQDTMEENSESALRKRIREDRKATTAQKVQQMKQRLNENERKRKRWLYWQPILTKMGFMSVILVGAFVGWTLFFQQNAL
Procedure: The PTPN2 biochemical assay was performed as follows, a 5× stock solution of human PTPN2 (SRP5075, MilliporeSigma, Burlington, MA) and a 1.25× stock solution of DiFMUP (D6567, ThermoFisher Scientific, Waltham, MA), were prepared in 1× reaction buffer consisting of 50 mM HEPES, pH 7.4, 1 mM EDTA, 150 mM NaCl, 0.2 mg/mL BSA, 100 U/mL catalase and 10 mM DTT. […] of the DiFMUP substrate solution, for a final concentration of […] DiFMUP substrate, was added to a Corning 3574 384-well, white, non-binding surface microtiter plate containing […] of serially diluted test compounds prepared in DMSO. The reactions were started with the addition of […] of the enzyme solution, for a final PTPN2 concentration of 0.15 nM, and monitored every 105 seconds for 60 minutes at λEX 360/λEM 460 in a BioTek Synergy HTX plate reader (Agilent Technologies, Santa Clara, CA) at room temperature. The initial linear portions of the progress curves were fit according to a linear equation to yield the slopes and converted to % inhibition based on a value of 100% activity for the no inhibitor treated control. IC50 values of each compound were obtained by fitting the % inhibition-compound concentration curves using Dotmatics software (Dotmatics, Bishops Stortford, Hertfordshire, England)
(§1) For IC50 data, High DDT concentration and/or DiFMUP substrate assays were used; a skilled artisan may use either assay.

PTPN2 [2] = molecular target: T1, PTPN2; test: PTPN2 biochemical assay (PhosphoSens, substrate AQT0264); conditions: PhosphoSens substrate AQT0264 20 μM, room temperature; read-out: PTPN2 BCHEM IC50
Procedure: A PhosphoSens® kinase assay was performed as described by the vendor (AssayQuant Technologies, Marlborough, MA). Briefly, 1000× solutions of compounds were prepared in DMSO via serial dilution of the 10 mM DMSO stocks using 3-fold intervals in a 384-well reagent plate. 50 nL of the compound dilution series was then added to the corresponding wells of a 384-well assay plate. 40 mL of 1.25× substrate (AQT0264) in 1× assay buffer (50 mM HEPES pH 7.5, 500 μM EGTA, […] MgCl2, 0.01% Brij-35, 1% Glycerol, 1 mM DTT, and 0.2 mg/mL BSA) was transferred to each well of the assay plate to achieve a final substrate concentration of 20 μM. Finally, […] of 5×PTPN2 enzyme stock was added to each well of the assay plate for a final enzyme concentration of […]. Reaction progress curves were collected by sampling fluorescence intensity at the excitation wavelength 360 nm (λex360) and emission wavelength 480 nm (λem480) every 71 seconds for one hour using a Synergy H4 plate reader (BioTek Instruments/Agilent Technologies, Winooski, VT) at room temperature.
as §1

Row | SMILES | EC50 (phospho-STAT1 (Tyr701)) [nM] | EC50 (B16-F10 cells) [nM] | IC50 (PTPN2 [1]) [nM] | IC50 (PTPN2 [2]) [nM]
1 | O=C1CN(c2c(O)cc(CNc3cncc(-c4ccccc4)c3)cc2F)S(=O)(=O)N1 [EXAMPLE 12, 5-[2-fluoro-6-hydroxy-4-[[(5-phenyl-3-pyridyl)amino]methyl]phenyl]-1,1-dioxo-1,2,5-thiadiazolidin-3-one] | > 15000 | > 15000 | 100 | 20
2 | CN(C)c1ccc(NCc2cc(O)c(N3CC(=O)NS3(=O)=O)c(F)c2)cn1 [EXAMPLE 1, 5-[4-[[[6-(dimethylamino)-3-pyridyl]amino]methyl]-2-fluoro-6-hydroxy-phenyl]-1,1-dioxo-1,2,5-thiadiazolidin-3-one] | 420 | 900 | 130 | 20
3 | O=C1CN(c2c(O)cc(CNc3cncc(Cl)c3)cc2F)S(=O)(=O)N1 [EXAMPLE 8, 5-[4-[[(5-chloro-3-pyridyl)amino]methyl]-2-fluoro-6-hydroxy-phenyl]-1,1-dioxo-1,2,5-thiadiazolidin-3-one] | 2670 | 3900 | 220 | 20
4 | CC(C)c1cnc(NCc2cc(O)c(N3CC(=O)NS3(=O)=O)c(F)c2)nc1 [EXAMPLE 11, 5-[2-fluoro-6-hydroxy-4-[[(5-isopropylpyrimidin-2-yl)amino]methyl]phenyl]-1,1-dioxo-1,2,5-thiadiazolidin-3-one] | 1770 | 6020 | – | 140
5 | CC(C)c1cncc(NCc2cc(O)c(N3CC(=O)NS3(=O)=O)c(F)c2)c1 [EXAMPLE 13, 5-[2-fluoro-6-hydroxy-4-[[(5-isopropyl-3-pyridyl)amino]methyl]phenyl]-1,1-dioxo-1,2,5-thiadiazolidin-3-one] | 930 | 1370 | 50 | 10
6 | CCN(Cc1cc(O)c(N2CC(=O)NS2(=O)=O)c(F)c1)c1nc(C)cc(-c2ccccc2C#N)n1 [EXAMPLE 14, 2-[2-[ethyl-[[3-fluoro-5-hydroxy-4-(1,1,4-trioxo-1,2,5-thiadiazolidin-2-yl)phenyl]methyl]amino]-6-methyl-pyrimidin-4-yl]benzonitrile] | > 15000 | > 15000 | 490 | 210

The next lines start with the values.

Row | EC50 (phospho-STAT1 (Tyr701)) [nM] | EC50 (B16-F10 cells) [nM] | IC50 (PTPN2 [1]) [nM] | IC50 (PTPN2 [2]) [nM] | SMILES
7 | 730 | 1380 | 1 | – | N#Cc1ncc(NCc2cc(O)c(N3CC(=O)NS3(=O)=O)c(F)c2)cn1 [EXAMPLE 32, 5-((4-(1,1-dioxido-4-oxo-1,2,5-thiadiazolidin-2-yl)-3-fluoro-5-hydroxybenzyl)amino)pyrimidine-2-carbonitrile]
8 | > 15000 | > 15000 | 60 | – | O=C1CN(c2c(O)cc(CNc3cnccc3-c3ccc(C(F)(F)F)cc3)cc2F)S(=O)(=O)N1 [EXAMPLE 30, 5-[2-fluoro-6-hydroxy-4-[[[4-[4-(trifluoromethyl)phenyl]-3-pyridyl]amino]methyl]phenyl]-1,1-dioxo-1,2,5-thiadiazolidin-3-one]
9 | 690 | 1730 | 30 | 1 | Cc1cncc(NCc2cc(O)c(N3CC(=O)NS3(=O)=O)c(F)c2)n1 [EXAMPLE 16, 5-[2-fluoro-6-hydroxy-4-[[(6-methylpyrazin-2-yl)amino]methyl]phenyl]-1,1-dioxo-1,2,5-thiadiazolidin-3-one]
10 | 250 | 630 | 20 | – | Cc1ccc(NCc2cc(O)c(N3CC(=O)NS3(=O)=O)c(F)c2)nn1 [EXAMPLE 28, 5-(2-fluoro-6-hydroxy-4-(((6-methylpyridazin-3-yl)amino)methyl)phenyl)-1,2,5-thiadiazolidin-3-one 1,1-dioxide]
11 | 6800 | 10900 | 50 | 20 | COc1ncc(C)c(NCc2cc(O)c(N3CC(=O)NS3(=O)=O)c(F)c2)n1 [EXAMPLE 22, 5-[2-fluoro-6-hydroxy-4-[[(2-methoxy-5-methyl-pyrimidin-4-yl)amino]methyl]phenyl]-1,1-dioxo-1,2,5-thiadiazolidin-3-one]
12 | 3430 | 11300 | 20 | – | COc1nc(NCc2cc(O)c(N3CC(=O)NS3(=O)=O)c(F)c2)cnc1C [EXAMPLE 25, 5-[2-fluoro-6-hydroxy-4-[[(6-methoxy-5-methyl-pyrazin-2-yl)amino]methyl]phenyl]-1,1-dioxo-1,2,5-thiadiazolidin-3-one]
13 | 7860 | 7770 | 20 | – | COc1cnc(C)c(NCc2cc(O)c(N3CC(=O)NS3(=O)=O)c(F)c2)n1 [EXAMPLE 21, 5-[2-fluoro-6-hydroxy-4-[[(6-methoxy-3-methyl-pyrazin-2-yl)amino]methyl]phenyl]-1,1-dioxo-1,2,5-thiadiazolidin-3-one]
14 | 760 | 4770 | 60 | – | Cc1cc(C)nc(NCc2cc(O)c(N3CC(=O)NS3(=O)=O)c(F)c2)n1 [EXAMPLE 29, 5-[4-[[(4,6-dimethylpyrimidin-2-yl)amino]methyl]-2-fluoro-6-hydroxy-phenyl]-1,1-dioxo-1,2,5-thiadiazolidin-3-one]
